Experimental data taken from the NIST ThermoML archive (doi:10.1016/j.fluid.2014.04.002).
± gives the expanded uncertainty stated by the source.

Assay: xn = mol fraction of the nth substance listed
Settings: 101 kPa, Liquid; for viscosity: Concentric cylinders viscometry; for mass density: Vibrating tube method

COCCOCCOCCOCCOC [2,5,8,11,14-pentaoxapentadecane] + CCOC(=O)C(C)O
Settings | mass density, 308.15 K [kg/m3] | mass density, 313.15 K [kg/m3] | mass density, 318.15 K [kg/m3] | mass density, 323.15 K [kg/m3] | viscosity, 308.15 K [mPa·s] | viscosity, 313.15 K [mPa·s] | viscosity, 318.15 K [mPa·s] | viscosity, 323.15 K [mPa·s]
x2 = 0 | 998.153 ± 0.23 | 993.523 ± 0.23 | 988.892 ± 0.23 | 984.262 ± 0.23 | 2.668 ± 0.046 | 2.407 ± 0.042 | 2.185 ± 0.038 | 2.003 ± 0.035
x2 = 0.0999 | 999.806 ± 0.27 | 995.132 ± 0.27 | 990.453 ± 0.27 | 985.775 ± 0.27 | 2.626 ± 0.046 | 2.367 ± 0.041 | 2.147 ± 0.038 | 1.972 ± 0.035
x2 = 0.1999 | 1001.67 ± 0.32 | 996.945 ± 0.32 | 992.217 ± 0.32 | 987.487 ± 0.32 | 2.593 ± 0.046 | 2.336 ± 0.041 | 2.115 ± 0.037 | 1.943 ± 0.034
x2 = 0.2999 | 1003.5 ± 0.37 | 998.729 ± 0.37 | 993.944 ± 0.37 | 989.156 ± 0.36 | 2.557 ± 0.045 | 2.301 ± 0.041 | 2.081 ± 0.037 | 1.91 ± 0.034
x2 = 0.3998 | 1005.51 ± 0.43 | 1000.64 ± 0.42 | 995.8 ± 0.42 | 990.94 ± 0.42 | 2.511 ± 0.045 | 2.257 ± 0.041 | 2.041 ± 0.037 | 1.87 ± 0.034
x2 = 0.4999 | 1007.57 ± 0.49 | 1002.66 ± 0.48 | 997.738 ± 0.48 | 992.806 ± 0.48 | 2.452 ± 0.045 | 2.2 ± 0.04 | 1.991 ± 0.036 | 1.818 ± 0.033
x2 = 0.6001 | 1009.68 ± 0.56 | 1004.68 ± 0.55 | 999.671 ± 0.54 | 994.651 ± 0.54 | 2.385 ± 0.044 | 2.137 ± 0.04 | 1.932 ± 0.036 | 1.763 ± 0.033
x2 = 0.6998 | 1011.95 ± 0.63 | 1006.87 ± 0.62 | 1001.77 ± 0.61 | 996.689 ± 0.61 | 2.293 ± 0.043 | 2.053 ± 0.038 | 1.854 ± 0.035 | 1.69 ± 0.032
x2 = 0.8001 | 1014.25 ± 0.71 | 1009.04 ± 0.7 | 1003.81 ± 0.69 | 998.562 ± 0.68 | 2.184 ± 0.041 | 1.953 ± 0.037 | 1.76 ± 0.033 | 1.605 ± 0.031
x2 = 0.9 | 1016.16 ± 0.79 | 1010.8 ± 0.78 | 1005.43 ± 0.77 | 1000.06 ± 0.76 | 2.046 ± 0.039 | 1.827 ± 0.035 | 1.642 ± 0.032 | 1.496 ± 0.029
